According to publication PMC4134956 (Bioorganic & medicinal chemistry, 2014):
Values belong to the compound of their own block, whether it stands above or below them.

Key:
[1] = assay type: in vivo, NSG male mouse; settings: for preferential tumor localization compared to lung: single injection
[2] = single injection at 10 mg/kg; non-radioactive version; cited from earlier work
[3] = cited from earlier work
[4] = single i.p. injection 20 nmol per animal, 24 hours
[5] = single i.p. injection 20 nmol, 7 days

mean tumor concentration, multiple injection experiment ([1]; 3 injections days 1, 4, 7, 20 nmol i.p. each, harvest 24 h after last): 3.49 mg/kg | accumulation upon repeated injection in tumor and organs assessed ([1]; 3 injections over 7 days): Some twofold accumulation | enrichment in the tumor over all host tissues probed ([1]; 4 hour time point): some two-fold enrichment | liver concentration lower than that in tumors ([1]; 24 hours, p < 0.01): 29% | preferential tumor localization compared to lung ([1]; 24 hours): up to 12 fold | mean tumor-associated concentration ([1]; LNCaP tumor, single i.p. injection 20 nmol per animal, harvest 24 hours): 1.48 mg/kg | lung concentration [1, 4]: 0.12 mg/kg | kidney tissue level [1, 5]: 0.05 mg/kg | lung tissue level [1, 5]: 0.06 mg/kg | tumor tissue level [1, 5]: 0.45 mg/kg
SMILES: CC(=O)N[C@H](CCNC(=O)c1cc(NC(=O)c2cc(NC(=O)c3cc(NC(=O)c4nccn4C)cn3C)cn2C)cn1C)C(=O)Nc1cn(C)c(C(=O)Nc2cc(C(=O)Nc3cc(C(=O)Nc4cc(C(=O)NCCCN(C)CCCN[14C](=O)c5cccc([14C](=O)O)c5)n(C)c4)n(C)c3)n(C)c2)n1 [compound 1, ImPyPyPy-(R)^α-NHAcγ-ImPyPyPy]
liver toxicity [2]: not 1

lung levels relative to compound 1 ([1]; 24 hours): almost eightfold higher | tumor-associated levels compared with compound 1 ([1]; 24 hours): within error | host tissue levels compared with compound 1 ([1]; 24 hours, kidney, liver, lung): substantially higher levels | lung concentration [1, 4]: 0.93 mg/kg
SMILES: CN(CCCNC(=O)c1cc(NC(=O)c2cc(NC(=O)c3cc(NC(=O)c4nc(NC(=O)[C@H](N)CCNC(=O)c5cc(NC(=O)c6cc(NC(=O)c7cc(NC(=O)c8nccn8C)cn7C)cn6C)cn5C)cn4C)cn3C)cn2C)cn1C)CCCN[14C](=O)c1cccc([14C](=O)O)c1 [compound 3]
liver toxicity [2]: resulted in liver toxicity

SMILES: COc1cccc2c1C(=O)c1c(O)c3c(c(O)c1C2=O)C[C@@](O)(C(=O)CO)C[C@@H]3O[C@H]1C[C@H](N)[C@H](O)[C@H](C)O1 [doxorubicin]
liver levels higher than MCF7 xenograft levels ([3]; 2 hour timepoint): ~2 fold | tumor localization value ([3]; MCF7 xenograft, i.p. 1.6 mg/kg, up to 24 hours after single injection): about 1 mg/kg

mean tumor and host tissue values compared with compound 1 ([1]; 24 hours, differently placed C-14 label): within experimental error | preferential tumor localization compared to lung ([1]; 24 hours): up to 12 fold
SMILES: C[14C](=O)N[C@H](CCNC(=O)c1cc(NC(=O)c2cc(NC(=O)c3cc(NC(=O)c4nccn4C)cn3C)cn2C)cn1C)C(=O)Nc1cn(C)c(C(=O)Nc2cc(C(=O)Nc3cc(C(=O)Nc4cc(C(=O)NCCCN(C)CCCNC(=O)c5cccc(C(=O)O)c5)n(C)c4)n(C)c3)n(C)c2)n1 [compound 2]
